Measurements reported in the METLIN SMRT retention time set (Domingo-Almenara et al. 2019).

Experiment: gradient 5% acetonitrile 3 min, to 50% in 2 min, to 85% in 15 min, held 3 min, 100 µL/min
Conditions: column: Zorbax Extend-C18 2.1 x 50 mm; eluents: water / acetonitrile, 0.1% formic acid
Procedure, shortened: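 Standards, all pure, were combined into mixtures of ~100 molecules and run at 100 μL/min on a Zorbax Extend-C18 column (2.1 × 50 mm, 1.8 μm) with water and acetonitrile, each containing 0.1% formic acid. A coupled quadrupole time-of-flight mass spectrometer operated in positive and negative ionization mode. Retention time values come from computationally picked adduct peaks, each inspected manually.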

Row | RP-LC retention time [s] | SMILES
1 | 821 | Cc1nn(CC(=O)N2CCN(c3ccc(Cl)cc3)CC2)c(=O)c2noc(C)c12
2 | 660 | CCc1ccc(NC(=O)N2CCC(C(=O)NCc3csc(C)n3)CC2)cc1
3 | 799 | Cc1ccc(NC(=O)N2CCC3(CC2)NC(=O)c2ccccc2O3)cc1F
4 | 1180 | CC1CCCCN1S(=O)(=O)c1ccc2nc(N3CCN(c4ccccc4F)CC3)ccc2c1 (stereo not given)
5 | 704 | CCC(=O)Nc1nc(-c2ccc3c(c2)NC(=O)CO3)cs1
6 | 803 | Cc1cccc(NC(=O)C2CCCN(S(=O)(=O)c3cn(C(C)C)cn3)C2)c1 (stereo not given)
7 | 534 | O=C(NCc1cccnc1)c1cc(N2CCCC2)n2nccc2n1
8 | 933 | COc1ccccc1-c1noc(C2CCCN2C(=O)Nc2ccccc2C(F)(F)F)n1 (stereo not given)
9 | 859 | O=C(NC1CCCCCCC1)C1CC(=O)N(CCc2c[nH]c3ccc(F)cc23)C1 (stereo not given)
10 | 1070 | COc1cccc(N2CCN(S(=O)(=O)c3cc(-c4nc(C)cs4)cs3)CC2)c1
11 | 800 | O=C(Cn1ccc2sccc2c1=O)Nc1cccc(Cl)c1
12 | 633 | O=C(NCC1CCCO1)c1cn(-c2ccc(NC(=O)C3CC3)cn2)cn1 (stereo not given)
13 | 740 | Cc1ccc(CN2CCN(C3CCN(C(=O)Nc4cccc(C)c4)CC3)C(=O)C2=O)cc1
14 | 749 | CC(C)n1cnc(S(=O)(=O)N2CCC(C(=O)NCc3ccc(Cl)cc3)CC2)c1
15 | 749 | Cc1ccc(NC(=O)C2CCN(c3nnc4ccc(Cl)cn34)CC2)c(F)c1
16 | 664 | CCN(CC)CCNC(=O)C1CCCN(c2ccc(Sc3ccc(Br)cc3)nn2)C1 (stereo not given)
17 | 910 | Cc1cc(C)c2c(n1)sc1c(=O)n(CC(=O)Nc3ccc(F)c(F)c3)c(C)nc12
18 | 931 | CCN(CC)S(=O)(=O)c1ccc(NC(=O)N2CCC(C(=O)Nc3ccc(Cl)cc3)CC2)s1

Row | RP-LC retention time [s] | SMILES
19 | 714 | CC(C)NC(=O)C1=CCN(C(=O)c2ccc(F)cc2)CC1
20 | 860 | Cn1ncc2c3ccccc3n(CC(=O)NCCc3c[nH]c4ccc(Cl)cc34)c2c1=O
21 | 956 | Cc1ccc(Oc2nccnc2N2CCCC(C(=O)Nc3ccc(N4CCOCC4)cc3)C2)cc1 (stereo not given)
22 | 831 | Cc1ccc(NC(=O)N2CCC3(CC2)NC(=O)c2ccccc2O3)cc1Cl
23 | 618 | Cc1cc(=O)n(CC(=O)Nc2ccc(F)cc2)c(N2CCCC2)n1
24 | 806 | Cc1ccc(-c2cn3c(CC(=O)Nc4ccc5c(c4)OCCO5)csc3n2)cc1C
25 | 799 | Cc1cc(=O)n(CC(=O)N2CCN(c3ccc(F)cc3)CC2)c(N2CCc3ccccc3C2)n1
26 | 656 | Cc1ccc(-c2ccc(N3CCN(c4ccccn4)CC3)nn2)cc1S(=O)(=O)N1CCCC1
27 | 802 | CCN(CC)S(=O)(=O)c1ccc2c(c1)N(CC(=O)NCCCOC)C(=O)C1CCCCN21 (stereo not given)
28 | 611 | Cc1ccc(CNC(=O)N2CCN(Cc3c(C)noc3C)CC2)cc1
29 | 954 | CSc1cccc(NC(=O)C2CCC(=O)N2S(=O)(=O)c2ccc(C)cc2)c1 (stereo not given)
30 | 853 | COC(=O)c1cccc(C(=O)Nc2ccc(F)cc2C)n1
31 | 773 | O=C(NCc1nnnn1-c1ccc(Cl)cc1)c1ccc(S(=O)(=O)N2CCCC2)cc1
32 | 981 | COC(=O)c1ccc(NC(=O)N2CCC(CCOc3ccc(F)cc3)C2)cc1 (stereo not given)
33 | 852 | Cc1ccc(NC(=O)C2CCCN(S(=O)(=O)c3c[nH]c(C(=O)N4CCCC4)c3)C2)cc1Cl (stereo not given)
34 | 1170 | CC1CCCN(S(=O)(=O)c2cc(C(=O)Nc3ccc(F)c(Cl)c3)n(C)c2)C1 (stereo not given)
35 | 668 | Cn1c(=O)n(CCN2CCCCC2)c(=O)c2c1nc1n2CCCN1c1ccc(Cl)cc1

More lines, now with the values behind:

Row | SMILES | RP-LC retention time [s]
36 | Cc1nc(CCNS(=O)(=O)c2ccc(Cl)c(C)c2)no1 | 812
37 | CCCCCC(CN1CCOCC1)C(=O)/C=C/c1ccccc1 (stereo not given) | 748
38 | COc1ccc(C2C(C(=O)N3CCCCCC3)c3cc(OC)c(OC)cc3C(=O)N2C)cc1OC (stereo not given) | 748
39 | COc1cc(OC)cc(C(=O)Nc2cccc(C(C)=O)c2)c1 | 753
40 | O=C(NCc1nnnn1C1CCCCC1)c1cccs1 | 715
41 | COc1ccc2c(c1)C1(CCN(S(=O)(=O)c3ccc(C)cc3)C1)C(=O)N2 (stereo not given) | 843
42 | CCn1cnc(S(=O)(=O)N2CCC(C(=O)N3CCN(c4cc(C)ccc4C)CC3)CC2)c1 | 878
43 | O=C1CN(S(=O)(=O)c2cccc3cccnc23)C2(CCCC2)CN1 | 685
44 | Cc1ccsc1C(=O)N1CC(Oc2ccc(-c3nc(-c4ccccc4)no3)cc2)C1 | 1250
45 | Cc1cc(C)n(CCNc2nc3c(F)cc(F)cc3s2)n1 | 732
46 | O=C(c1ccc(-c2cccs2)nc1)N1CCOCC1 | 678
47 | CC(C)n1nnc2cc(S(=O)(=O)N(C)CC(=O)N3CCN(c4ccccn4)CC3)ccc21 | 607
48 | COC(=O)[C@H]1[C@H]2C[C@H]3c4[nH]c5ccccc5c4CCN3C[C@H]2CC[C@@H]1O | 671
49 | COc1ccc(-c2nnc(Cc3nc(-c4cccc(Cl)c4)no3)o2)cc1OC | 995
50 | CC(C)(C)NC(=O)NCC(c1ccsc1)N1CCc2ccccc2C1 (stereo not given) | 593
51 | CNC(=O)c1ccsc1NC(=O)c1cn(C)nc1OC | 616
52 | CCCNc1nnc(-c2nc(C3CC3)no2)c2ccccc12 | 660
53 | Cc1ccc(NC(=O)Cn2cnc3c(-c4ccccc4)csc3c2=O)c(Cl)c1 | 965
54 | Cc1ccc(-c2nc(NC(=O)C(C)C)sc2C)cc1 | 1010
55 | CCOc1ccc(C2Cn3nnc(-c4nc(-c5ccccc5)no4)c3CO2)cc1 (stereo not given) | 1200
56 | CCOC(=O)c1cccc(Nc2c(-c3ccc(OC)cc3)nc3cnccn23)c1 | 668
57 | O=C(NCc1ccc2c(c1)OCO2)C(=O)c1cn(CC(=O)N2CCOCC2)c2ccccc12 | 804
58 | CCOC(=O)COc1cc(-c2ccc(C)cc2)nc2ccc(NC(=O)C3CC3)cc12 | 776
59 | CN1CCN(C(=O)C2CCN(S(=O)(=O)c3ccc4c(c3)sc(=O)n4C)CC2)CC1 | 596
60 | Cc1nc(CSc2ncnc3sc4c(c23)CCC4)cs1 | 1040
61 | CN(C)CCNC(=O)c1ccc(Nc2c(-c3ccccc3)nc3cnccn23)cc1 | 586
62 | Cn1cc(C(=O)Nc2ccc3c(c2)OCO3)c2cccnc21 | 730
63 | Clc1cccc(Nc2c(-c3ccccc3)nc3cnccn23)c1 | 921

Row | SMILES | RP-LC retention time [s]
64 | COc1ccc(Cl)cc1NC(=O)c1c(O)c2cccnc2n(-c2cccc(F)c2)c1=O | 1330
65 | CCN(CC)S(=O)(=O)c1c(C)[nH]c(=O)[nH]c1=O | 578
66 | CCOc1cccc(CNS(=O)(=O)c2cc3c(s2)CCN(C(=O)C2CCC2)C3)c1 | 940
67 | CCOc1ccc(C2Cn3nnc(-c4nc(-c5cccc(F)c5)no4)c3CO2)cc1 (stereo not given) | 1220
68 | CCN(CC)CCNC(=O)c1ccnc(-c2cccs2)c1 | 597
69 | CCOC(=O)c1nn(-c2ccccc2)cc1O | 830
70 | c1ccc(-c2cc(N3CCN(c4ccccn4)CC3)nn2-c2ccccc2)cc1 | 831
71 | O=c1c2ncccc2n(Cc2c(F)cccc2Cl)c(=O)n1Cc1cccnc1 | 852
72 | Cc1ccc(-n2ncc3c(=O)n(Cc4nc(-c5ccccc5)no4)cnc32)cc1 | 1080
73 | CCC(CC)C(=O)N1CCC(N2CCN(Cc3ccc(C)cc3)C(=O)C2=O)CC1 | 756
74 | COC(=O)c1c(NCc2cccc(OC)c2)c2cccc(Cl)c2[nH]c1=O | 803
75 | CC(=O)Nc1cc(C(=O)NCc2nn(Cc3ccccc3)c3ccccc23)ccc1C | 794
76 | Cc1nc(CC(=O)NCc2ccc(F)c(Cl)c2)sc1C(=O)NC1CC1 | 708
77 | CCCc1noc(-c2ccnc(-n3cnc(C(=O)N4CCCC(C)C4)c3)c2)n1 (stereo not given) | 944
78 | CC(C)Cn1c(=O)c(N2CCN(S(=O)(=O)c3ccccc3)CC2)nc2ccncc21 | 612
79 | CN1C(=O)c2cccn2CC1C(=O)NC1CCCCC1 (stereo not given) | 681
80 | COCCc1noc([C@@H]2CC(F)(F)CN2C(=O)c2coc(C)n2)n1 | 705
81 | COc1cccc2c1OC1(C)CC2C(S(=O)(=O)c2ccc(C(C)(C)C)cc2)C(=O)N1 (stereo not given) | 1010
82 | CCOC(=O)C1=C(CN2CCN(C3CCCCC3)CC2)NC(=O)NC1c1ccc(OC)cc1 (stereo not given) | 656
83 | O=C(Nc1cc(-c2ccccn2)no1)c1ccc(Cl)cc1 | 864
84 | CCc1nn(CC)c(=O)c2cc(S(=O)(=O)NCc3ccc(F)cc3Cl)cn12 | 1020
85 | Cc1nc(-c2ccc(-c3noc(Cc4c[nH]c5ccccc45)n3)cc2)cs1 | 1090
86 | CCOC(=O)c1noc2ncnc(Nc3cc(C)ccc3OC)c12 | 1060
87 | CCCCN(CC)C(=O)C1CCCN(c2nc3cccnc3s2)C1 (stereo not given) | 914
88 | CC(C)(C)C(=O)N1CCCC(C(=O)N2CCOCC2)C1 (stereo not given) | 625
89 | O=C(Cc1nnc(-c2cnccn2)o1)Nc1cccc(F)c1 | 679
90 | Cc1nc(Nc2ccc(F)cn2)sc1C(=O)N1CCC2(CC1)OCCO2 | 686
